Assay results: patent US20110046040A1, “Microorganism-inactivating agent” (CHISSO CORPORATION, priority 2009, published 2011)

Tests used:
[1] = test system: Salmonella choleraesuis; assay: inactivation of microorganisms in water, number of cells in supernatant; assay type: cell-based
Procedure: (§1) Each test microbe was inoculated to nutrient broth and cultured with shaking at the optimum temperature of the test microbe until the late logarithmic phase. From the microbe culture, the microbe was collected, and the collected microbe was washed with 1.5 mL of physiological saline 2 to 3 times (centrifugation at 13000 rpm for 1 minute) and suspended in 1.5 mL of physiological saline. From the suspension, a 1 mL aliquot was recovered, and this was added to 9 mL of sterile water, followed by sufficient stirring of the resulting suspension (this was used as 10^−1 dilution). From the 10^−1 dilution, 10^−2 to 10^−8 dilutions were sequentially prepared. Each dilution was smeared on a film medium (Sanita-kun; for E. coli and coliform bacteria, for Staphylococcus aureus, for Salmonella, for aerobic bacteria or for fungi: Chisso Corporation) in an amount of 1 mL, followed by culturing at the optimum temperature of the test microbe for 24 to 72 hours and measurement of the number of cells on the film medium.
(§2) To a sterilized beaker, 500 mL of sterilized water was placed, and 0.20 mL of microbe culture of 10^6 to 10^10 cells/mL was inoculated thereto, to attain an initial cell number of 10^3 to 10^7 cells/mL. Unless otherwise specified, the pH was 6 to 8. After stirring the suspension gently for 5 minutes, PGα21Ca (Nippon Poly-Glu Co., Ltd.) and/or a microbiostatic agent or microbicide was/were added thereto such that a predetermined final concentration(s) was/were attained. After gentle stirring at room temperature for 10 to 15 minutes, the suspension was left to stand for a predetermined length of time. The supernatant was collected and diluted appropriately in an antimicrobial agent-inactivating medium (BHI medium or the like), and 1 mL each of the resulting diluent was smeared on a film medium. Culturing was carried out at the optimum temperature of each test microbe for 24 to 72 hours and the number of cells (cells/mL) on the film medium was measured.

[2] = test system: Escherichia coli; assay: as above; assay type: cell-based
Procedure: as §1, §2

[3] = ε-poly-L-lysine 5 ppm, initial 1.2 × 10^7
[4] = ε-poly-L-lysine 10 ppm, 0 minute later 3.2 × 10^5
[5] = ε-poly-L-lysine 10 ppm, initial 1.2 × 10^7
[6] = ε-poly-L-lysine 5 ppm, initial 3.2 × 10^7
[7] = ε-poly-L-lysine 10 ppm, 0 minute later 2.5 × 10^6
[8] = ε-poly-L-lysine 10 ppm, initial 3.2 × 10^7

ε-poly-L-lysine
number of cells 2 hours later ([1]; 10 ppm, pH 8, initial 4.7 × 10^4): <10 cells/mL
number of cells 0.5 hour later [1, 3]: 50 cells/mL
number of cells 1 hour later [1, 3]: 20 cells/mL
number of cells 2 hours later [1, 3]: <10 cells/mL
number of cells 5 minutes later [1, 4]: 480 cells/mL
number of cells 15 minutes later [1, 4]: 1.4 × 10^3 cells/mL
number of cells 60 minutes later [1, 4]: 120 cells/mL
number of cells 120 minutes later [1, 4]: <10 cells/mL
number of cells 0.5 hour later [1, 5]: <10 cells/mL
number of cells 1 hour later [1, 5]: <10 cells/mL
number of cells 2 hours later [1, 5]: <10 cells/mL
number of cells 2 hours later ([2]; 10 ppm, pH 8, initial 5.8 × 10^4): <10 cells/mL
number of cells 0.5 hour later [2, 6]: 3.2 × 10^3 cells/mL
number of cells 1 hour later [2, 6]: <10 cells/mL
number of cells 2 hours later [2, 6]: <10 cells/mL
number of cells 5 minutes later [2, 7]: 1.32 × 10^4 cells/mL
number of cells 15 minutes later [2, 7]: 10 cells/mL
number of cells 60 minutes later [2, 7]: <10 cells/mL
number of cells 120 minutes later [2, 7]: <10 cells/mL
number of cells 0.5 hour later [2, 8]: 300 cells/mL
number of cells 1 hour later [2, 8]: <10 cells/mL
number of cells 2 hours later [2, 8]: <10 cells/mL
